For assay [1], the species on record is Cavia porcellus. As to the kind of experiment: Effective refractory period of contractile response in isolated guinea-pig papillary muscles at 3 Hz and 1 uM. It is filed as functional, Muscle tissue.
Assay [2] can be described thus: Ratio of ERPc prolongation was measured as percent change at 3 Hz/1 Hz. It is filed as functional.
Assay [3] is filed under the species Cavia porcellus. Kind of assay: Effective refractory period of contractile response in isolated guinea-pig papillary muscles at 1 Hz and 1 uM. It is filed as functional, Muscle tissue.
The species named for assay [4] is Cavia porcellus. Kind of assay: Effect of 1 uM of compound, on action potential duration (APD) was determined in isolated guinea-pig papillary muscles at 1 Hz. It is filed as functional, Muscle tissue.
A short description of assay [5]: Ratio of APD prolongation was measured as percent change at 3 Hz/1 Hz. It is filed as functional.
Assay [6] is filed under the species Cavia porcellus. As to the kind of experiment: Effect of 1 uM of compound, on action potential duration (APD) was determined in isolated guinea-pig papillary muscles at 3 Hz. The format is functional, Muscle tissue.

The source of these data is ChEMBL document CHEMBL1131702, “Synthesis and biological activity of KCB-328 and its analogues: novel class III antiarrhythmic agents with little reverse frequency dependence” (1999).

Turning to `COc1ccc(CCN(C)CCOc2ccc(NS(C)(=O)=O)cc2)cc1OC`, the “Delta ERPc” value in the assay listed under Cavia porcellus [1] is 28.9%; in the assay listed under Cavia porcellus [3], 60.1%. In assay [2], the Ratio was found to be 48.

With `COc1cc(C)c(CCN(C)CCOc2ccc(NS(C)(=O)=O)cc2Cl)cc1OC`, the “Delta ERPc” value in the assay listed under Cavia porcellus [1] was 33.1%; in the assay filed under Cavia porcellus [3] it was 28%. Besides, the “Delta APD90” value stood at 37.8% in the assay listed under Cavia porcellus [4] and 22.2% in the assay listed under Cavia porcellus [6]. For the same molecule, the values for the Ratio in assay [5] and in assay [2] were 82 and 118, respectively.

Turning to `COc1ccc(CCN(C)CCOc2ccc(NS(C)(=O)=O)cc2OCc2ccccc2)cc1OC`, the results for the “Delta ERPc” value in the assay listed under Cavia porcellus [1] and in the assay listed under Cavia porcellus [3] were 30% and 26.3%, respectively. Also, the Ratio in assay [2] was found to be 114.

Turning to `COc1ccc(CCN(C)CCOc2ccc(NS(C)(=O)=O)cc2Br)cc1OC`, the “Delta ERPc” value in the assay filed under Cavia porcellus [1] stood at 25.2%; in the assay listed under Cavia porcellus [3] it was 32.8%. In assay [2], the Ratio stood at 76.

Consider `COc1cc(N)c(CCN(C)CCOc2ccc(NS(C)(=O)=O)cc2-n2cccc2)cc1OC`, for which the “Delta ERPc” value stood at 24.7% in the assay listed under Cavia porcellus [1] and 39.4% in the assay listed under Cavia porcellus [3]. Further, in assay [2], the Ratio is 62.

For the molecule `COc1ccc(CCN(C)CCOc2ccc(NS(C)(=O)=O)cc2Cl)cc1OC`, the figures for the “Delta ERPc” value in the assay listed under Cavia porcellus [1] and in the assay listed under Cavia porcellus [3] were 30.8% and 32.2%, respectively. For the same molecule, in assay [2], the Ratio came to 95.

With `Cc1cccc(CCN2CCC(C(=O)c3ccc(NS(C)(=O)=O)cc3)CC2)n1`, the “Delta ERPc” value in the assay filed under Cavia porcellus [1] is listed as 30.2%; in the assay listed under Cavia porcellus [3], 41.8%. For the same molecule, the Ratio in assay [2] came out at 71.

Consider `COc1ccc(CCN(C)CCOc2ccc(NS(C)(=O)=O)cc2Nc2nccs2)cc1OC`, for which the “Delta ERPc” value is on record as 36.8% in the assay listed under Cavia porcellus [1] and 43.4% in the assay filed under Cavia porcellus [3]. Further, the Ratio in assay [2] was 84.

With `COc1ccc(CCN(C)CCOc2ccc(NS(C)(=O)=O)cc2N)cc1OC`, the “Delta ERPc” value in the assay listed under Cavia porcellus [1] was 32.6%; in the assay listed under Cavia porcellus [3], 31%. For the same molecule, the figures for the “Delta APD90” value in the assay filed under Cavia porcellus [4] and in the assay filed under Cavia porcellus [6] were 33.3% and 28.6%, respectively. The Ratio stood at 86 in assay [5] and 105 in assay [2].

In the case of `COc1ccc(CCN(C)CCOc2ccc(NS(C)(=O)=O)cc2NC(C)=O)cc1OC`, the entries for the “Delta ERPc” value in the assay filed under Cavia porcellus [1] and in the assay listed under Cavia porcellus [3] were 27.7% and 39.3%, respectively. The Ratio in assay [2] worked out at 70.

For the molecule `COc1cc(N)c(CCN(C)CCOc2ccc(NS(C)(=O)=O)cc2Cl)cc1OC`, the “Delta ERPc” value in the assay listed under Cavia porcellus [1] is on record as 34.7%; in the assay filed under Cavia porcellus [3], 27.5%. Moreover, the Ratio in assay [2] is 126.

With `COc1ccc(CCN(C)CCOc2ccc(NS(C)(=O)=O)cc2C)cc1OC`, the “Delta ERPc” value in the assay filed under Cavia porcellus [1] was 27.2%; in the assay filed under Cavia porcellus [3], 28.9%. Further, the Ratio in assay [2] was 94.

With `COc1ccc(CCN(C)CCOc2ccc(NS(C)(=O)=O)cc2-n2cccc2)cc1OC`, the “Delta ERPc” value in the assay listed under Cavia porcellus [1] is recorded as 40.1%; in the assay listed under Cavia porcellus [3], 31.2%. Moreover, the “Delta APD90” value in the assay listed under Cavia porcellus [4] worked out at 26.4%; in the assay listed under Cavia porcellus [6] it was 26.2%. In addition, the Ratio was 99 in assay [5] and 128 in assay [2].

As to `CN(CCOc1ccc(NS(C)(=O)=O)cc1)CCc1ccc(NS(C)(=O)=O)cc1` [DOFETILIDE], the “Delta ERPc” value in the assay filed under Cavia porcellus [1] was determined as 30.8%; in the assay filed under Cavia porcellus [3] it was 49.9%. The “Delta APD90” value in the assay listed under Cavia porcellus [4] was found to be 45.6%; in the assay filed under Cavia porcellus [6] it was 26.8%. In addition, the Ratio in assay [5] amounted to 59; in assay [2], 65.

In the case of `COc1cc(C)c(CCN(C)CCOc2ccc(NS(C)(=O)=O)cc2-n2cccc2)cc1OC`, the results for the “Delta ERPc” value in the assay filed under Cavia porcellus [1] and in the assay listed under Cavia porcellus [3] were 26.3% and 32.1%, respectively. Besides, the Ratio in assay [2] amounted to 81.

In the case of `COc1cc(Cl)c(CCN(C)CCOc2ccc(NS(C)(=O)=O)cc2Cl)cc1OC`, the “Delta ERPc” value was 17.8% in the assay filed under Cavia porcellus [1] and 22.4% in the assay filed under Cavia porcellus [3]. The Ratio in assay [2] worked out at 79.

On to `COc1ccc(CCN(C)CCOc2ccc(NS(C)(=O)=O)cc2F)cc1OC`, for which the results for the “Delta ERPc” value in the assay listed under Cavia porcellus [1] and in the assay listed under Cavia porcellus [3] were 25.9% and 34.5%, respectively. In assay [2], the Ratio was found to be 75.

`COc1cc(CCN(C)CCOc2ccc(NS(C)(=O)=O)cc2Cl)c([N+](=O)[O-])cc1OC`: the “Delta ERPc” value in the assay listed under Cavia porcellus [1] was determined as 36.2%; in the assay listed under Cavia porcellus [3] it was 29.4%. Besides, in assay [2], the Ratio worked out at 123.

As to `COc1ccc(CCN(C)CCOc2ccc(NS(C)(=O)=O)cc2I)cc1OC`, the “Delta ERPc” value in the assay filed under Cavia porcellus [1] was 21.2%; in the assay listed under Cavia porcellus [3] it was 28.9%. Besides, in assay [2], the Ratio worked out at 73.

As for `COc1ccc(CCN(C)CCOc2ccc(NS(C)(=O)=O)cc2[N+](=O)[O-])cc1OC`, the “Delta ERPc” value was determined as 25% in the assay listed under Cavia porcellus [1] and 33.3% in the assay filed under Cavia porcellus [3]. Besides, the Ratio in assay [2] came out at 75.
